Test results taken from ChEMBL document CHEMBL5543142, “Discovery of YFJ-36: Design, Synthesis, and Antibacterial Activities of Catechol-Conjugated β-Lactams against Gram-Negative Bacteria” (J Med Chem, 2024).

Legend:
Type in all cases: functional
Details in all cases: time 18-20 hrs
[1] = system: Escherichia coli; experiment: Antibacterial activity against ESBL-producing multidrug-resistant Escherichia coli clinical isolate 14-1 assessed as inhibition of bacterial growth incubated for 18 to 20 hrs by two fold serial dilution assay
[2] = system: Pseudomonas aeruginosa; experiment: Antibacterial activity against IMP-4 producing multidrug-resistant Pseudomonas aeruginosa clinical isolate 17-1 assessed as inhibition of bacterial growth incubated for 18 to 20 hrs by two fold serial dilution assay
[3] = system: Escherichia coli; experiment: Antibacterial activity against ESBL-producing multidrug-resistant Escherichia coli clinical isolate 14-2 assessed as inhibition of bacterial growth incubated for 18 to 20 hrs by two fold serial dilution assay
[4] = system: Acinetobacter baumannii; experiment: Antibacterial activity against OXA-23 producing multidrug-resistant Acinetobacter baumannii clinical isolate 15-4 assessed as inhibition of bacterial growth incubated for 18 to 20 hrs by two fold serial dilution assay
[5] = system: Klebsiella pneumoniae; experiment: Antibacterial activity against KPC-2 producing multidrug-resistant Klebsiella pneumoniae clinical isolate 15-5 assessed as inhibition of bacterial growth incubated for 18 to 20 hrs by two fold serial dilution assay
[6] = system: Acinetobacter baumannii; experiment: Antibacterial activity against OXA-23 producing multidrug-resistant Acinetobacter baumannii clinical isolate 15-2 assessed as inhibition of bacterial growth incubated for 18 to 20 hrs by two fold serial dilution assay
[7] = system: Pseudomonas aeruginosa; experiment: Antibacterial activity against IMP-4 producing multidrug-resistant Pseudomonas aeruginosa clinical isolate 17-13 assessed as inhibition of bacterial growth incubated for 18 to 20 hrs by two fold serial dilution assay
[8] = system: Klebsiella pneumoniae; experiment: Antibacterial activity against KPC-2 producing multidrug-resistant Klebsiella pneumoniae clinical isolate 15-1 assessed as inhibition of bacterial growth incubated for 18 to 20 hrs by two fold serial dilution assay
[9] = system: Pseudomonas aeruginosa; experiment: Antibacterial activity against IMP-4 producing multidrug-resistant Pseudomonas aeruginosa clinical isolate 19-17 assessed as inhibition of bacterial growth incubated for 18 to 20 hrs by two fold serial dilution assay
[10] = system: Escherichia coli; experiment: Antibacterial activity against ESBL-producing multidrug-resistant Escherichia coli clinical isolate 14-4 assessed as inhibition of bacterial growth incubated for 18 to 20 hrs by two fold serial dilution assay
[11] = system: Acinetobacter baumannii; experiment: Antibacterial activity against OXA-23 producing multidrug-resistant Acinetobacter baumannii clinical isolate 15-3 assessed as inhibition of bacterial growth incubated for 18 to 20 hrs by two fold serial dilution assay
[12] = system: Klebsiella pneumoniae; experiment: Antibacterial activity against KPC-2 producing multidrug-resistant Klebsiella pneumoniae clinical isolate 15-2 assessed as inhibition of bacterial growth incubated for 18 to 20 hrs by two fold serial dilution assay
[13] = system: Escherichia coli; experiment: Antibacterial activity against Escherichia coli ATCC35218 assessed as inhibition of bacterial growth incubated for 18 to 20 hrs by two fold serial dilution assay
[14] = system: Acinetobacter baumannii; experiment: Antibacterial activity against OXA-23 producing multidrug-resistant Acinetobacter baumannii clinical isolate 15-1 assessed as inhibition of bacterial growth incubated for 18 to 20 hrs by two fold serial dilution assay
[15] = system: Acinetobacter baumannii; experiment: Antibacterial activity against OXA-23 producing multidrug-resistant Acinetobacter baumannii clinical isolate 15-5 assessed as inhibition of bacterial growth incubated for 18 to 20 hrs by two fold serial dilution assay
[16] = system: Klebsiella pneumoniae; experiment: Antibacterial activity against KPC-2 producing multidrug-resistant Klebsiella pneumoniae clinical isolate 15-3 assessed as inhibition of bacterial growth incubated for 18 to 20 hrs by two fold serial dilution assay
[17] = system: Pseudomonas aeruginosa; experiment: Antibacterial activity against IMP-4 producing multidrug-resistant Pseudomonas aeruginosa clinical isolate 15-4 assessed as inhibition of bacterial growth incubated for 18 to 20 hrs by two fold serial dilution assay
[18] = system: Pseudomonas aeruginosa; experiment: Antibacterial activity against Pseudomonas aeruginosa ATCC 27853 assessed as inhibition of bacterial growth incubated for 18 to 20 hrs by two fold serial dilution assay
[19] = system: Pseudomonas aeruginosa; experiment: Antibacterial activity against IMP-4 producing multidrug-resistant Pseudomonas aeruginosa clinical isolate 15-5 assessed as inhibition of bacterial growth incubated for 18 to 20 hrs by two fold serial dilution assay
[20] = system: Pseudomonas aeruginosa; experiment: Antibacterial activity against IMP-4 producing multidrug-resistant Pseudomonas aeruginosa clinical isolate 15-1 assessed as inhibition of bacterial growth incubated for 18 to 20 hrs by two fold serial dilution assay

SMILES	MIC [1] [µg/mL]	MIC [2] [µg/mL]	MIC [3] [µg/mL]	MIC [4] [µg/mL]	MIC [5] [µg/mL]	MIC [6] [µg/mL]	MIC [7] [µg/mL]	MIC [8] [µg/mL]	MIC [9] [µg/mL]	MIC [10] [µg/mL]	MIC [11] [µg/mL]	MIC [12] [µg/mL]	MIC [13] [µg/mL]	MIC [14] [µg/mL]	MIC [15] [µg/mL]	MIC [16] [µg/mL]	MIC [17] [µg/mL]	MIC [18] [µg/mL]	MIC [19] [µg/mL]	MIC [20] [µg/mL]
C[C@@](O/N=C(\C(=O)N[C@@H]1C(=O)N2C(C(=O)O)=C(CSCCNC(=O)c3ccc(O)c(O)c3Cl)CS[C@H]12)c1csc(N)n1)(C(=O)O)C(F)(F)F.O=C(O)C(F)(F)F	0.125	4	0.5	16	1	32	0.125	1	0.5	0.5	32	1	0.06	16	16	2	–	–	–	–
Nc1nc(/C(=N/OC(C(=O)O)C2CCOCC2)C(=O)N[C@@H]2C(=O)N3C(C(=O)O)=C(CSCCNC(=O)c4ccc(O)c(O)c4Cl)CS[C@H]23)cs1.O=C(O)C(F)(F)F (stereo not given in full)	8	–	16	32	16	32	1	16	8	4	16	16	4	32	16	8	–	–	–	–
CC(C)(O/N=C(\C(=O)N[C@@H]1C(=O)N2C(C(=O)O)=C(CSCCCNC(=O)c3ccc(O)c(O)c3Cl)CS[C@H]12)c1csc(N)n1)C(=O)O.O=C(O)C(F)(F)F	0.125	–	2	64	4	64	–	16	–	16	32	4	–	32	64	8	2	4	4	1
Nc1nc(/C(=N/OC2(C(=O)O)CC2)C(=O)N[C@@H]2C(=O)N3C(C(=O)O)=C(CSCCNC(=O)c4ccc(O)c(O)c4Cl)CS[C@H]23)cs1.O=C(O)C(F)(F)F	0.5	–	2	64	32	64	–	16	–	64	32	32	–	64	64	> 64	1	4	4	1
CC(C)(O/N=C(\C(=O)N[C@@H]1C(=O)N2C(C(=O)O)=C(CSCCNC(=O)c3ccc(O)c(O)c3Cl)CS[C@H]12)c1csc(N)n1)C(=O)O.O=C(O)C(F)(F)F	0.25	–	2	32	2	32	–	8	–	1	32	4	–	32	64	8	4	0.5	4	2
CC(C)(C)C(O/N=C(\C(=O)N[C@@H]1C(=O)N2C(C(=O)O)=C(CS[C@H]3CC[C@@H](NC(=O)c4ccc(O)c(O)c4Cl)CC3)CS[C@H]12)c1csc(N)n1)C(=O)O.O=C(O)C(F)(F)F (stereo not given in full)	0.5	–	4	4	1	4	–	4	–	4	8	16	–	8	8	32	16	8	8	8
